Test results published in the NIST ThermoML archive (doi:10.1016/j.tca.2015.05.002).
Numbers after ± are expanded uncertainties.

Assays:
[1] = Molar enthalpy of transition or fusion; conditions: DSC
[2] = DTA

Row | Molar enthalpy of transition or fusion ([1]; Crystal 1) [kcal/mol] | Molar enthalpy of transition or fusion ([1]; Crystal 2) [kcal/mol] | Molar enthalpy of transition or fusion ([1]; Smectic liquid crystal) [kcal/mol] | Triple point temperature ([2]; Crystal 1) [K] | Triple point temperature ([2]; Crystal 2) [K] | Triple point temperature ([2]; Smectic liquid crystal) [K] | Compound
1 | 1.1 ± 0.129 | 1.49 ± 0.134 | 0.32 ± 0.124 | 406.85 ± 10 | 380.45 ± 10 | 459.05 ± 0.5 | CCCCCC(=O)[O-].CCCCCC(=O)[O-].CCCCCC(=O)[O-].[La+3] [lanthanum(III) hexanoate]
2 | 1.69 ± 0.136 |  | 0.717 ± 0.127 | 410.95 ± 10 | 366.15 ± 10 | 451.65 ± 10 | CCCCC(=O)[O-].CCCCC(=O)[O-].CCCCC(=O)[O-].[La+3] [lanthanum(III) pentanoate]
